From ChEMBL document CHEMBL1201862, “PubChem BioAssay data set” (2004)
Values joined by “and” are separate entries in the source; they are usually repeats but may differ in a detail not shown here. Identical values can stand only once. Active and inactive are the calls of the source.

What was measured:
Cytochrome P450 3A4 [1] = biological target: T1, Cytochrome P450 3A4 (Homo sapiens, UniProt P08684); settings: Potency
Leucine aminopeptidase = biological target: T2, Leucine aminopeptidase (Plasmodium falciparum 3D7, UniProt Q8IL11); test: P. falciparum M17LAP inhibitors, primary screen, biochemical, fluorogenic H-Leu-NHMec substrate, 1536-well (AID 1619); assay type: functional
T2 sequence (Q8IL11 whole entry): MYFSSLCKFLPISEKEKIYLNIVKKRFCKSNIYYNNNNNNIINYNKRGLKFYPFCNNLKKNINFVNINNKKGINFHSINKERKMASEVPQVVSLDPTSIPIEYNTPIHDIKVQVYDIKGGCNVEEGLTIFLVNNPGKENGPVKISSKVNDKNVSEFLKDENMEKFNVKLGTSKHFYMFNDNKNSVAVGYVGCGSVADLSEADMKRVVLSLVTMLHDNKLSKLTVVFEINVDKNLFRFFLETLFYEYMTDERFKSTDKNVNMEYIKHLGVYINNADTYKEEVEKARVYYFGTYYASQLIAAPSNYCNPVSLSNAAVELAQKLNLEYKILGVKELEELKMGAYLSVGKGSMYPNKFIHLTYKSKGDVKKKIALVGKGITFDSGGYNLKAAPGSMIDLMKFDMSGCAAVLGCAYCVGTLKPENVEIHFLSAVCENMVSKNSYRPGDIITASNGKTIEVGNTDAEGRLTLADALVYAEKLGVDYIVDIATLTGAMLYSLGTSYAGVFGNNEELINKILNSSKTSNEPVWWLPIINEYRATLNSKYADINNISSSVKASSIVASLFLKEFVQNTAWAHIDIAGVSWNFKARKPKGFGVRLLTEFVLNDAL

[2] = biological target: Neurotensin receptor type 1 (Homo sapiens, UniProt P30989); assay type: functional;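 further: Image-based confirmatory dose-response assay measuring agonist activity at NTR1; NTR1-expressing U2OS osteosarcoma cells imaged for beta-arrestin GFP spot formation; agonist potency where compounds increase beta-arrestin recruitment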
[3] = growth suppression of PTEN-null colon cells, dose response, cell-based, HCT116 PTEN knockout (AID 1047); assay type: functional;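 further: HCT116 colon tumor cells with PTEN knocked out; cells exposed to compound for 60 hours before readout; potency for loss of cell viability measured by luminescence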
[4] = Luminescence Cell-Based Dose Retest to Confirm Inhibitors of Cancer Stem Cells. [Related pubchem assays (depositor defined):AID2717, AID2721]; assay type: functional; settings: Homo sapiens
[5] = growth suppression of beta-catenin-knockout colon cells, dose response, cell-based, HCT116, human colon tumor (AID 1045); assay type: functional;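 further: HCT116 colon tumor cells with beta catenin knocked out; cells exposed to compound for 60 hours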
[6] = A cytotoxicity screen of small molecule inhibitors of the PhoP region in Salmonella typhi identified in the primary screen. [Related pubchem assays: 1850, 1864, 1985 ]; assay type: functional
Cytochrome P450 3A4 [7] = biological target: T1, Cytochrome P450 3A4
[8] = biological target: T3, Short transient receptor potential channel 4 (Mus musculus, UniProt Q9QUQ5); test: mouse TRPC4 channel activators, dose response, cell-based, HEK293 TRPC4/mu-opioid, Fluo-4 calcium (AID 434937); assay type: functional
T3 sequence (Q9QUQ5 whole entry): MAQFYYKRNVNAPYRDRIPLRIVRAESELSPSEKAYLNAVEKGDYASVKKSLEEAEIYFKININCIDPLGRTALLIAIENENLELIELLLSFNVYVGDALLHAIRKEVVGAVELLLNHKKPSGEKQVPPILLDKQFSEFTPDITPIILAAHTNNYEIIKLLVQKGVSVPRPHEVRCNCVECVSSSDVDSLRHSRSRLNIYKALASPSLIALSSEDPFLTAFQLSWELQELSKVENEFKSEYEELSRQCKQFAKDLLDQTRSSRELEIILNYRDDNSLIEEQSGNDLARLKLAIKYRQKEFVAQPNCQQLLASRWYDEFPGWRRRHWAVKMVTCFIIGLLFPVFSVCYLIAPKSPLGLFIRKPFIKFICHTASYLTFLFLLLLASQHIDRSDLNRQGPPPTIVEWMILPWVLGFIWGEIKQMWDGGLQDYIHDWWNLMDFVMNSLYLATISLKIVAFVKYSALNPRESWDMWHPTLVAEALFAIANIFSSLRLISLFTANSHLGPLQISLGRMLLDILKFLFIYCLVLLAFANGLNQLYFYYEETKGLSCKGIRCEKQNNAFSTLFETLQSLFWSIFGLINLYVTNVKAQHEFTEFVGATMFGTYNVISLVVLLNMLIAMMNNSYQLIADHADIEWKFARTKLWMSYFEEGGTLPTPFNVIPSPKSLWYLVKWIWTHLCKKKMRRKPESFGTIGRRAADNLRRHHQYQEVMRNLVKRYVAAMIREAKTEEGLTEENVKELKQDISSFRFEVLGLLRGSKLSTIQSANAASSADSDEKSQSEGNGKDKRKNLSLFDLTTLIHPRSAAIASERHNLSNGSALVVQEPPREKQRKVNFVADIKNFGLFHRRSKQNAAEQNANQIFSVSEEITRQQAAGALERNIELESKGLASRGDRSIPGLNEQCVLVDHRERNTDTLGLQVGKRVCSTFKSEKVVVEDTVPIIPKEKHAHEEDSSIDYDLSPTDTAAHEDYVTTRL

INS1 = test: beta cell apoptosis inhibitors, cytokine rescue, dose response, luminescence, retest (AID 449756); assay type: functional, cell-based; settings: Rattus norvegicus;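 further: cell death triggered by IL-1 beta plus TNF-alpha plus IFN-gamma mixture; protective hits raise ATP signal compared with cytokine alone wells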
cells [9] = assay type: functional, cell-based
cells [10] = assay type: functional, cell-based; remark: listed apart in the source
[11] = intracellular Trypanosoma cruzi inhibitors in host cells – cell-based, plate reader, cherry-pick samples, set 3, dose response (AID 651818); assay type: functional;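 further: compounds incubated with infected cells for about four days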
[12] = NIH:OVCAR-3 ovarian cancer cell cytotoxicity, dose response, PAX8 inhibitor project, plate reader, dry powder samples (AID 743044); assay type: functional, cell-based
Paired box protein Pax-8 = Paired box protein Pax-8 (Homo sapiens, UniProt Q06710); test: inhibitors of PAX8-driven TPO luciferase reporter, dose response, RMG-I cells, cherry-pick (AID 687027); assay type: functional, cell-based;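 further: luciferase reporter driven by Pax8 target thyroperoxidase promoter measured by SteadyGlo luminescence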
[13] = cytotoxicity in OVCAR8 ovarian cancer cells, dose response, PAX8 project, cell-based, plate reader, dry powder samples (AID 743197); assay type: functional; settings: OVCAR-8
[14] = IGROV1 ovarian cancer cell cytotoxicity, dose response, PAX8 inhibitor project, plate reader, dry powder samples (AID 743043); assay type: functional, cell-based; settings: IGROV-1
Protein RecA = biological target: T4, Protein RecA (Mycobacterium tuberculosis, UniProt P9WHJ3); test: Fluorescence Cell-Free Homogeneous Dose Retest to Identify Inhibitors of RecA-Intein Splicing Activity. [Related pubchem assays (depositor defined):AID2097, AID2223, AID489010, AID492950]; assay type: functional
T4 sequence (P9WHJ3 whole entry): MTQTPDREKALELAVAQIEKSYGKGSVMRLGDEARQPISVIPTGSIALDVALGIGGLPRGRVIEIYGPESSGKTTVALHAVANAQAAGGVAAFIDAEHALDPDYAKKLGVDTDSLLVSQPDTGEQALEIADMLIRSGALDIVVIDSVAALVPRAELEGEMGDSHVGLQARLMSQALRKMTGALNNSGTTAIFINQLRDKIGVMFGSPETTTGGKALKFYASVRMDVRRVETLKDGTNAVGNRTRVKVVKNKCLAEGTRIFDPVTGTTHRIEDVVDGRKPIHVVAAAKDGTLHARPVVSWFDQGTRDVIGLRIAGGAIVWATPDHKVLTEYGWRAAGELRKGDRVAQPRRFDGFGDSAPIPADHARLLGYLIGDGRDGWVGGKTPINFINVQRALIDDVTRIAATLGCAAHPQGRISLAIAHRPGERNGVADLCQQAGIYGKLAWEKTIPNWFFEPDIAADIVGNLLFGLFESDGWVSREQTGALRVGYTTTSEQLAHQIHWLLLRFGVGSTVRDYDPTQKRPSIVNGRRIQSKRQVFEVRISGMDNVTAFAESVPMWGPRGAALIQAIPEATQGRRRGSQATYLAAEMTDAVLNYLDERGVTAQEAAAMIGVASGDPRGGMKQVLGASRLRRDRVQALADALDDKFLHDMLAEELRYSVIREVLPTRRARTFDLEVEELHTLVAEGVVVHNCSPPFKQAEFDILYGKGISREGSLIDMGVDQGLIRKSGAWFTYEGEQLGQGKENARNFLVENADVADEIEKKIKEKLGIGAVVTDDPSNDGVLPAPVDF

[15] = biological target: T5, Replicative DNA helicase DnaB (Mycobacterium tuberculosis, UniProt P9WMR3); test: DnaB intein splicing inhibitors, dose response, biochemical, cell-free fluorescence (AID 449749); assay type: functional
T5 sequence (P9WMR3 whole entry): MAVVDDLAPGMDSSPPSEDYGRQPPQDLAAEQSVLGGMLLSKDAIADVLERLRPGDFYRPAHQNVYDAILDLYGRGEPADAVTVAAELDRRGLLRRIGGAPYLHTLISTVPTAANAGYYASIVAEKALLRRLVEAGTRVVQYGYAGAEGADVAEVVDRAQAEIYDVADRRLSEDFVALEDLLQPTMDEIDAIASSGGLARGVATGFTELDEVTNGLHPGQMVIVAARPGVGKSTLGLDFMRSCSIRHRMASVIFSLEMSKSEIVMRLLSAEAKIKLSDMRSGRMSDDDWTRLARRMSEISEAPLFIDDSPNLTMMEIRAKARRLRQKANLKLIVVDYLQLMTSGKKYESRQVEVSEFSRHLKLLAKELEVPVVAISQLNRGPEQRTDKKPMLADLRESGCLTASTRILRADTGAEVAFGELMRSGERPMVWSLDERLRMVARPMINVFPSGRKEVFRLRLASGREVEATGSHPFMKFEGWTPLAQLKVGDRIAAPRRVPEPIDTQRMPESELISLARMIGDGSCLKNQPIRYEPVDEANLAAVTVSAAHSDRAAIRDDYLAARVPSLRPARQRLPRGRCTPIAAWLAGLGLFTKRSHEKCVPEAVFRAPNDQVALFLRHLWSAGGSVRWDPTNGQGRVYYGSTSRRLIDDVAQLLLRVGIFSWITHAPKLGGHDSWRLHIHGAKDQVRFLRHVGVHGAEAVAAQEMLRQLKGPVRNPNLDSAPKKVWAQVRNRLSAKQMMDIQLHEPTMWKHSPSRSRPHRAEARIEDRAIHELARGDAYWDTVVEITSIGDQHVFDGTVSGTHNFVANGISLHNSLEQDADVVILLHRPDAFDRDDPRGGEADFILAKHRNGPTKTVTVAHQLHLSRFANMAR

Large T antigen = Large T antigen (Simian virus 40, UniProt P03070); assay type: functional, Betapolyomavirus macacae;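 further: Confirmatory-stage PubChem screen for compounds that inhibit SV40 T antigen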
[16] = biological target: FAD-linked sulfhydryl oxidase ALR (Homo sapiens, UniProt P55789); test: inhibitors of human ALR sulfhydryl oxidase, dose response, biochemical, H2O2 detection, luminescence, cherry-pick (AID 493248)
FAD-linked sulfhydryl oxidase ALR, sequence (P55789 whole entry): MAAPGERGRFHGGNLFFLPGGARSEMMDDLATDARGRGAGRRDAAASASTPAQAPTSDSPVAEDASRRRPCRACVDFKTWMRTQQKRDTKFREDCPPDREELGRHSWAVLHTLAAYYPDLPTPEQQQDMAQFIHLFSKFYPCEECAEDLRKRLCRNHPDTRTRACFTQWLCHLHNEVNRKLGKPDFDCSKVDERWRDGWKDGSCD

T1 sequence (P08684 whole entry): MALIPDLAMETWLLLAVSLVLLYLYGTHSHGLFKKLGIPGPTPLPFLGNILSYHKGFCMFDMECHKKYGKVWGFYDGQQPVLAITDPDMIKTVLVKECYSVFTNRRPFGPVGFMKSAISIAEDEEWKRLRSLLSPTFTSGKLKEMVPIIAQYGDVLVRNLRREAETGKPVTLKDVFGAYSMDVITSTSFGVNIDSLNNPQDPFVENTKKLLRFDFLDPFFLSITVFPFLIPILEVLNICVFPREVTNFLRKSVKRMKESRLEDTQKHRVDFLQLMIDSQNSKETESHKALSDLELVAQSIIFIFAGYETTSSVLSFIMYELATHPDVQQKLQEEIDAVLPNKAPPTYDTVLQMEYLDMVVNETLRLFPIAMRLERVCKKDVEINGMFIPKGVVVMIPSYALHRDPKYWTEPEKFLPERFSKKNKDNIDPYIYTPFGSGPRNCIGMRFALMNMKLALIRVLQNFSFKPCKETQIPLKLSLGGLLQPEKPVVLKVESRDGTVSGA
Neurotensin receptor type 1, sequence (P30989 whole entry): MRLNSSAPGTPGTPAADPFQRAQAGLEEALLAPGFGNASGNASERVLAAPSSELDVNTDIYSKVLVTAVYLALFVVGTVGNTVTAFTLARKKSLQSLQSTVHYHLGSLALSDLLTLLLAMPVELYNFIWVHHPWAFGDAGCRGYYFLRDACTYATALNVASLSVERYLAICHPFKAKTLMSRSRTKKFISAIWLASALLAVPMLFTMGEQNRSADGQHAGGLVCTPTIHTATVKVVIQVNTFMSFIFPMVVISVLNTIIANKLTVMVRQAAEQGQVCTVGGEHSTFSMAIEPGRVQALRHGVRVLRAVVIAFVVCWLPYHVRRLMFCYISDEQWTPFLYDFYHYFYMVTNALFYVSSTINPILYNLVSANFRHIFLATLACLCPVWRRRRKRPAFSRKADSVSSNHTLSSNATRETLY
Paired box protein Pax-8, sequence (Q06710 whole entry): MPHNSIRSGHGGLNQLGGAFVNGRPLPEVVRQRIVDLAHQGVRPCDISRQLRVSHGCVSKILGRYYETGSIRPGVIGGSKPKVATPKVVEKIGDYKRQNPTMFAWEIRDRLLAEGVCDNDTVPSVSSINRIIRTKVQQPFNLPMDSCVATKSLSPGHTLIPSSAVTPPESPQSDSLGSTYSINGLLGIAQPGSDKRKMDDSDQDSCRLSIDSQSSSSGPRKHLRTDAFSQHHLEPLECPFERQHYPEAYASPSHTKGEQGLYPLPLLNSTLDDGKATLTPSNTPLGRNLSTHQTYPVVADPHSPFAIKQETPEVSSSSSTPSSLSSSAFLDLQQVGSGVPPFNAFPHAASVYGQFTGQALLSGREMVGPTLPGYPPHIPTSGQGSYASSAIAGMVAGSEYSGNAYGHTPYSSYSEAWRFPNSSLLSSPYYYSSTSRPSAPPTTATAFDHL
Large T antigen, sequence (P03070 whole entry): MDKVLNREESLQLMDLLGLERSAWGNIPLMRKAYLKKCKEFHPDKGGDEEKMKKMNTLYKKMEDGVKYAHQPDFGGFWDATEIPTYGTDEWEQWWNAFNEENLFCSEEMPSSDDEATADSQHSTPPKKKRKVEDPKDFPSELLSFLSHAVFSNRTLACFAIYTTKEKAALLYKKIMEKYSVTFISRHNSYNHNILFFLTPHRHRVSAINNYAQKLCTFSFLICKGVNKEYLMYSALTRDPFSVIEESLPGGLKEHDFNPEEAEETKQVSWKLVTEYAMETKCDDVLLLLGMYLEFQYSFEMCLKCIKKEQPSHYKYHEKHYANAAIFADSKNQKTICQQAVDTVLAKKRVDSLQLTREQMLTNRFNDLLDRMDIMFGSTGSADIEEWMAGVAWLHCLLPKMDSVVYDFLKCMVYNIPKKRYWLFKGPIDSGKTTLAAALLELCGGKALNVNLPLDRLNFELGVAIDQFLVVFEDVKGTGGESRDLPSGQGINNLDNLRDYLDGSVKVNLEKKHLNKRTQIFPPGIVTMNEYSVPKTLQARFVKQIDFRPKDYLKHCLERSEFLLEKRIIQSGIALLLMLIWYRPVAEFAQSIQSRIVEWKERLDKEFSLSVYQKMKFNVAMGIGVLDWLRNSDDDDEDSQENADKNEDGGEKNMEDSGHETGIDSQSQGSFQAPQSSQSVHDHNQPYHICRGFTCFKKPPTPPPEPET

COCCN(CCOC)c1nc(C)nc2c1nc(-c1ccccc1)n2CC1CCN(C)CC1
AC50 (Cytochrome P450 3A4 [1]): 15.8 µM (inconclusive)

O=C1CC(=O)C(n2cncn2)C(c2ccc(Cl)cc2Cl)C1 (stereo not given)
IC50 (Leucine aminopeptidase): 17.9 µM (active)

Cc1cc(C)cc(N2C(=O)NC(=O)/C(=C/c3cccn3-c3ccc(Cl)cc3)C2=O)c1
EC50 [2]: 10.6 µM (active) | EC50 [3]: 31.6 µM (active) | AC50 [4]: 1.04 µM (active) | EC50 [5]: 26.1 µM (active)

CC(=O)c1cccc(NC(=O)CCC2CCCC2)c1
EC50 [6]: > 50 µM (active) | AC50 (Cytochrome P450 3A4 [7]): 28.2 µM (inconclusive)

CC(c1cccnc1)N(CCN(C)C)C(=O)Nc1ccc(Cl)c(Cl)c1 (stereo not given)
EC50 [6]: > 50 µM (active) | EC50 [8]: 1.5 µM (active)

CCCCNc1nc(C)nc2c1nc(-c1ccccc1)n2CCCN(C)C
AC50 (Cytochrome P450 3A4 [1]): 15.8 µM (inconclusive)

O=C(c1ccc(Cl)cc1)C(CN1CCCCC1)c1ccccc1 (stereo not given)
EC50 [2]: 14.7 µM (active) | AC50 (INS1): 19.4 µM (active)

COc1ccc(C2Oc3cc(OC)cc(OC)c3CC2O)cc1 (stereo not given)
AC50 (Cytochrome P450 3A4 [1]): 20 µM (inconclusive)

O=C(O)C1CC=CCC1C(=O)NCCc1ccccc1 (stereo not given)
IC50 (cells [9]): > 29.9 µM (inactive) | EC50 (cells [10]): > 29.9 µM (inactive)

COc1ccc(CNC(=O)C2CC(C)=C(C)CC2C(=O)O)cc1 (stereo not given)
IC50 (Leucine aminopeptidase): 43.7 µM (active)

Cc1ccc(-n2c(C)cc(C(=O)NS(=O)(=O)c3ccc(C)cc3)c2C)cc1
IC50 (Leucine aminopeptidase): 25.4 µM (active)

Cc1cccc(CN2C3=NCCCN3c3ccccc32)c1
EC50 [6]: > 50 µM (active)

COc1ccc(NS(=O)(=O)c2cccc(NC(=O)c3ccccn3)c2)cc1
EC50 [6]: > 50 µM (active)

C(=NOCCc1ccccc1)c1cccnc1
IC50 (cells [9]): > 29.8 µM (inactive) | EC50 (cells [10]): > 29.8 µM (inactive)

Cc1cc(Cl)nc(Cl)c1C(=O)NCCc1ccccc1
IC50 (cells [9]): > 29.9 µM (inactive) | EC50 (cells [10]): > 29.9 µM (inactive)

C[C@@H]1CN([C@H](C)CO)C(=O)Cc2cc(NC(=O)NC3CCCCC3)ccc2O[C@H]1CN(C)Cc1ccc(-c2ccccc2)cc1
AC50 [11]: 4.51 µM (active)

C[C@H](CO)N1C[C@H](C)[C@H](CN(C)Cc2ccc(C(=O)Nc3ccccc3N)cc2)Oc2c(cccc2N(C)C)C1=O
AC50 [11]: 3.67 µM (active)

COc1ccc(S(=O)(=O)Nc2ccc3c(c2)CC(=O)N([C@@H](C)CO)C[C@@H](C)[C@@H](CN(C)Cc2ccc(C(F)(F)F)cc2)O3)cc1
AC50 [11]: 5.93 µM (active)

C[C@H](CO)N1C[C@H](C)[C@H](CN(C)C(=O)Nc2ccc(C(F)(F)F)cc2)Oc2c(NC(=O)Nc3ccc(C(F)(F)F)cc3)cccc2C1=O
AC50 [11]: 6.56 µM (active)

C[C@@H]1CN([C@H](C)CO)C(=O)c2cc(NS(=O)(=O)c3ccccc3)ccc2O[C@@H](C)CCCCO[C@@H]1CN(C)CC1CCCCC1
AC50 [12]: 53.9 µM (active) | AC50 (Paired box protein Pax-8): 19.6 µM (active) | AC50 [13]: 68 µM (active)

C[C@@H]1CCCCO[C@@H](CN(C)S(=O)(=O)c2ccc(Cl)cc2)[C@H](C)CN([C@H](C)CO)C(=O)c2cc(NS(=O)(=O)c3ccc(F)cc3)ccc2O1
AC50 (Paired box protein Pax-8): 3.41 µM (active) | AC50 [14]: 57.7 µM (active)

O=C(Cc1cc(O)n[nH]1)N/N=C/c1c(Cl)cccc1Cl
IC50 (Leucine aminopeptidase): 49.9 µM (active) | EC50 (Protein RecA): 6.26 µM (inconclusive) and 1.51 µM (active) | AC50 [15]: 2.66 µM (active) and 7.7 µM (active)

C/C(=N/NC(=O)Cc1c(C)n[nH]c1O)c1ccc(O)cc1
IC50 (Large T antigen): 31.4 µM (active) | IC50 (Leucine aminopeptidase): 4.09 µM (active) | AC50 [16]: 1.49 µM (active)

O=C1CC(c2ccccc2O)Oc2ccc(O)cc21 (stereo not given)
AC50 (Cytochrome P450 3A4 [1]): 25.1 µM (inconclusive)
